Measurements published in US6451850B1, “Bio-chemical germanium complexes with high therapeutic efficiency and wide application spectrum” (priority 2001, dated 2002).
Where “and” joins values, the source holds several entries; their conditions need not be identical. Identical values can stand only once.

Legend:
[1] = Antiinflammatory effect, formalin paw edema (method by Ju. Strel'nikov); assay type: in vivo; conditions: white mice, into the stomach, dose equimolecular to 20 mg/kg of indometacin, two hours before formalin
Text: Strel'nikov. […] Simultaneously antiinflammatory activity of indometacin was studied for comparison.

[2] = test system: virus of herpes simplex (VHS) of the 2-nd antigenic type; experiment: Experimental herpes genitalis of male guinea pigs, treatment with Virolex or its OGC complex; assay type: in vivo; conditions: for Duration of the Disease: treatment begun 48 hours after infecting
Text: VIRUSES. The virus of herpes simplex (VHS) of the 2-nd antigenic type was implied in this work. Clinical symptoms of experimental herpes genitalis were registered daily before carrying out of treatment and were followed during the course of the disease.
The following parameters were used as criteria of infectious process danger: square and specific damage rate—presence of an edema, hyperemia, orchitis. Maximum distinction of each symptom made up 4 points. The present symptoms allow to buildup a scale and to express the course of the disease for each group under investigation from beginning of appearance of the first symptoms of the disease up to full disappearance of these. In this case index of therapeutic effect (ITE) is expressed with the following formula: [formula]
Treatment was began 48 hours after infecting when symptoms of the disease were distinct enough.
The first group included animals infected with VHS-2 and not subjected to treatment with any medicament.
The second group included animals infected with VHS-2 and subjected to treatment with 5 mg of Virolex once a day.
The third group included animals infected with VHS-2 and subjected to treatment with 5 mg of Virolex complex with OGC once a day.

[3] = guinea pigs infected with VHS-2, 5 mg once a day

| SMILES | reduction of the edema compared to the control group [1] [%] | convalescent earlier than in the second group (Virolex) ([2]; 5 mg once a day) [days] | day of convalescence after infecting ([2]; 5 mg once a day) | Duration of the Disease [2, 3] | toxic effect on infected animals compared to pure Virolex ([2]; infected guinea pigs) | Total Index of Symptoms Distinction [2, 3] | Index of Therapeutic Effect (ITE) ([2]; guinea pigs infected with VHS-2, 5 mg once a day, versus control group) [%] |
| --- | --- | --- | --- | --- | --- | --- | --- |
| COc1ccc2c(c1)c(CC(=O)O)c(C)n2C(=O)c1ccc(Cl)cc1 [Indometacin] | 33.4 | – | – | – | – | – | – |
| Nc1nc2c(ncn2COCCO)c(=O)[nH]1.[OH][Ge]12[O]CCN(CC[O]1)CC[O]2 [Virolex OGC (R = OH), complex of 1-hydroxy-1-germa-2,8,9-trioxy-5-azatricyclo[3.3.3.0^1,5]undecane with Virolex] | – | 4.9 | sixth | 6,2 ± 1,8 Days | decreased its toxic effect | – | – |
| Nc1nc2c(ncn2COCCO)c(=O)[nH]1 [Virolex, reference compound] | – | – | – | 11,1 ± 2,01 Days | – | 21 Points and 31,0 Points | 58 |
